Measurements: patent US10351575B2, “Bicyclic urea, thiourea, guanidine and cyanoguanidine compounds useful for the treatment of pain” (Array BioPharma Inc., priority 2012, dated 2019)
Counter-ions that a name gives are not always drawn.

These compounds were tested against His-tagged recombinant human TrkA (Homo sapiens (Human), UniProt P04629) (assay: TrkA LanthaScreen Eu Kinase Binding Assay). Settings: averaged IC50; TR-FRET binding, 60 min, 22° C.; read-out: TrkA Enzyme IC50.
Outline: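 TR-FRET binding: 5 nM His-tagged human TrkA cytoplasmic domain with 4 nM Alexa-Fluor Tracer 236, 2 nM biotin anti-His and 2 nM Eu-streptavidin. Buffer was 25 mM MOPS pH 7.5, 5 mM MgCl2, 0.005% Triton X-100, 2% DMSO, 60 min at 22° C. IC50 from a four-parameter fit of ratiometric percent of control.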

Sequence of His-tagged recombinant human TrkA (P04629 440-796): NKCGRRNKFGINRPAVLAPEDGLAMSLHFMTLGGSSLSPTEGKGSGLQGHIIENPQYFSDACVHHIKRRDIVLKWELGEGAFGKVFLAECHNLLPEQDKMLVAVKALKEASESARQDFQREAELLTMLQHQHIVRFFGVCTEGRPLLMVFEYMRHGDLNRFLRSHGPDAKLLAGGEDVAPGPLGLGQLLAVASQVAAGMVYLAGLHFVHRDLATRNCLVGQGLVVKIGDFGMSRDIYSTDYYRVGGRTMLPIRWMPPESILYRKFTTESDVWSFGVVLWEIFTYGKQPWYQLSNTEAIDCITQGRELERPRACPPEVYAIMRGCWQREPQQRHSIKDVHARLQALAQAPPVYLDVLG

Compound	IC50
Cc1ncc(-c2nn(-c3ccccc3)c(NC(=O)NC3CN(CC(F)(F)F)C(=O)c4ccccc43)c2C)cn1 (stereo not shown) [Example 130, 1-(4-methyl-3-(2-methylpyrimidin-5-yl)-1-phenyl-1H-pyrazol-5-yl)-3-(1-oxo-2-(2,2,2-trifluoroethyl)-1,2,3,4-tetrahydroisoquinolin-4-yl)urea]	< 100 nM
Cc1c(OC2CN3CCC2CC3)nn(-c2ccccc2)c1NC(=O)N[C@@H]1c2ccccc2C(C)(C)C[C@H]1O (stereo partly drawn) [Example 132, 1-((1R,2R)-2-hydroxy-4,4-dimethyl-1,2,3,4-tetrahydronaphthalen-1-yl)-3-(4-methyl-1-phenyl-3-(quinuclidin-3-yloxy)-1H-pyrazol-5-yl)urea]	< 100 nM
Cc1c(OCCN2CCOCC2)nn(-c2ccccc2)c1NC(=O)N[C@@H]1c2ccccc2C(C)(C)C[C@H]1O [Example 133, 1-((1R,2R)-2-hydroxy-4,4-dimethyl-1,2,3,4-tetrahydronaphthalen-1-yl)-3-(4-methyl-3-(2-morpholinoethoxy)-1-phenyl-1H-pyrazol-5-yl)urea]	< 100 nM
Cc1c(OCCN(C)C)nn(-c2ccccc2)c1NC(=O)N[C@@H]1c2ccccc2C(C)(C)C[C@H]1O [Example 134, 1-(3-(2-(dimethylamino)ethoxy)-4-methyl-1-phenyl-1H-pyrazol-5-yl)-3-((1R,2R)-2-hydroxy-4,4-dimethyl-1,2,3,4-tetrahydronaphthalen-1-yl)urea]	< 100 nM
Cc1c(-c2cnn(C)c2)nn(-c2ccccc2)c1NC(=O)N[C@@H]1c2ccccc2C2(CC2)[C@H]1O [Example 137, 1-(1′,4-dimethyl-1-phenyl-1H,1′H-[3,4′-bipyrazol]-5-yl)-3-((2′R,3′R)-2′-hydroxy-2′,3′-dihydrospiro[cyclopropane-1,1′-inden]-3′-yl)urea]	< 100 nM
COc1nn(-c2ccccc2)c(NC(=O)N[C@@H]2c3ccccc3C(C)(C)C[C@H]2O)c1C [Example 144, 1-((1R,2R)-2-hydroxy-4,4-dimethyl-1,2,3,4-tetrahydronaphthalen-1-yl)-3-(3-methoxy-4-methyl-1-phenyl-1H-pyrazol-5-yl)urea]	< 100 nM
Cc1c(CCO)nn(-c2ccccc2)c1NC(=O)N[C@@H]1c2ccccc2C(C)(C)C[C@H]1O [Example 148, 1-((1R,2R)-2-hydroxy-4,4-dimethyl-1,2,3,4-tetrahydronaphthalen-1-yl)-3-(3-(2-hydroxyethyl)-4-methyl-1-phenyl-1H-pyrazol-5-yl)urea]	< 100 nM
CO[C@H]1[C@@H](O)[C@H](NC(=O)Nc2c(C)c(-c3cnc(C)nc3)nn2-c2ccccc2)c2ccccc2C1(C)C [Example 155, 1-((r-1,t-2,t-3)-2-hydroxy-3-methoxy-4,4-dimethyl-1,2,3,4-tetrahydronaphthalen-1-yl)-3-(4-methyl-3-(2-methylpyrimidin-5-yl)-1-phenyl-1H-pyrazol-5-yl)urea]	< 100 nM
CNC(=O)c1nn(-c2ccccc2)c(NC(=O)N[C@@H]2c3ccccc3C(C)(C)[C@H](OC)[C@H]2O)c1C [Example 156, 5-(3-((r-1,t-2,c-3)-2-hydroxy-3-methoxy-4,4-dimethyl-1,2,3,4-tetrahydronaphthalen-1-yl)ureido)-N,4-dimethyl-1-phenyl-1H-pyrazole-3-carboxamide]	< 100 nM
CO[C@@H]1[C@@H](O)[C@H](NC(=O)Nc2c(C)c(-c3cnn(C)c3)nn2-c2ccccc2)c2ccccc2C1(C)C [Example 157, 1-(1′,4-dimethyl-1-phenyl-1H,1′H-[3,4′-bipyrazol]-5-yl)-3-((r-1,t-2,c-3)-2-hydroxy-3-methoxy-4,4-dimethyl-1,2,3,4-tetrahydronaphthalen-1-yl)urea]	< 100 nM

Further lines, results first:

IC50	Compound
< 100 nM	Cc1nn(-c2ccccc2)c(NC(=O)NC2CN(CC(F)(F)F)C(=O)c3ccccc32)c1C (stereo not shown) [Example 131, 1-(3,4-dimethyl-1-phenyl-1H-pyrazol-5-yl)-3-(1-oxo-2-(2,2,2-trifluoroethyl)-1,2,3,4-tetrahydroisoquinolin-4-yl)urea]
1000 to 3000 nM	COc1nn(-c2ccccc2)c(NC(=O)N[C@@H]2c3ccccc3CC[C@@H]2O)c1C [Example 135, 1-((1R,2S)-2-hydroxy-1,2,3,4-tetrahydronaphthalen-1-yl)-3-(3-methoxy-4-methyl-1-phenyl-1H-pyrazol-5-yl)urea]
< 100 nM	Cc1c(-c2cnn(C)c2)nn(-c2ccccc2)c1NC(=O)NC1CN(CC(F)(F)F)C2(CC2)c2ccccc21 (stereo not shown) [Example 136, 1-(1′,4-dimethyl-1-phenyl-1H,1′H-[3,4′-bipyrazol]-5-yl)-3-(2′-(2,2,2-trifluoroethyl)-3′,4′-dihydro-2′H-spiro[cyclopropane-1,1′-isoquinolin]-4′-yl)urea trifluoroacetate]
< 100 nM	O=C(Nc1c(Cl)c(OC[C@H]2CNCCO2)nn1-c1ccccc1)N[C@@H]1c2ccccc2C2(CC2)[C@H]1O [Example 140, 1-(4-chloro-3-((R)-morpholin-2-ylmethoxy)-1-phenyl-1H-pyrazol-5-yl)-3-((2′R,3′R)-2′-hydroxy-2′,3′-dihydrospiro[cyclopropane-1,1′-inden]-3′-yl)urea]
< 100 nM	CN1CCO[C@@H](COc2nn(-c3ccccc3)c(NC(=O)N[C@@H]3c4ccccc4C4(CC4)[C@H]3O)c2Cl)C1 [Example 141, 1-(4-chloro-3-(((R)-4-methylmorpholin-2-yl)methoxy)-1-phenyl-1H-pyrazol-5-yl)-3-((2′R,3′R)-2′-hydroxy-2′,3′-dihydrospiro[cyclopropane-1,1′-inden]-3′-yl)urea]
< 100 nM	Cc1c(OC[C@H]2CN(C(=O)OC(C)(C)C)CCO2)nn(-c2ccccc2)c1NC(=O)N[C@@H]1c2ccccc2C(C)(C)C[C@H]1O [Example 143, (R)-tert-butyl 2-(((5-(3-(trans-2-hydroxy-4,4-dimethyl-1,2,3,4-tetrahydronaphthalen-1-yl)ureido)-4-methyl-1-phenyl-1H-pyrazol-3-yl)oxy)methyl)morpholine-4-carboxylate]
100 to 1000 nM	Cn1nc(-c2ccccc2)cc1NC(=O)N[C@@H]1c2ccccc2C(C)(C)C[C@H]1O [Example 145, 1-((1R,2R)-2-hydroxy-4,4-dimethyl-1,2,3,4-tetrahydronaphthalen-1-yl)-3-(1-methyl-3-phenyl-1H-pyrazol-5-yl)urea]
< 100 nM	CCOc1nn(-c2ccccc2)c(NC(=O)N[C@@H]2c3ccccc3C(C)(C)C[C@H]2O)c1C [Example 146, 1-(3-ethoxy-4-methyl-1-phenyl-1H-pyrazol-5-yl)-3-((1R,2R)-2-hydroxy-4,4-dimethyl-1,2,3,4-tetrahydronaphthalen-1-yl)urea]
< 100 nM	COCCOc1nn(-c2ccccc2)c(NC(=O)N[C@@H]2c3ccccc3C(C)(C)C[C@H]2O)c1C [Example 147, 1-((1R,2R)-2-hydroxy-4,4-dimethyl-1,2,3,4-tetrahydronaphthalen-1-yl)-3-(3-(2-methoxyethoxy)-4-methyl-1-phenyl-1H-pyrazol-5-yl)urea]
< 100 nM	Cc1c(OCCO)nn(-c2ccccc2)c1NC(=O)N[C@@H]1c2ccccc2C(C)(C)C[C@H]1O [Example 149, 1-((1R,2R)-2-hydroxy-4,4-dimethyl-1,2,3,4-tetrahydronaphthalen-1-yl)-3-(3-(2-hydroxyethoxy)-4-methyl-1-phenyl-1H-pyrazol-5-yl)urea]
< 100 nM	Cc1c(OC[C@H]2CNCCO2)nn(-c2ccccc2)c1NC(=O)N[C@@H]1c2ccccc2C(C)(C)C[C@H]1O [Example 150, 1-((1R,2R)-2-hydroxy-4,4-dimethyl-1,2,3,4-tetrahydronaphthalen-1-yl)-3-(4-methyl-3-((R)-morpholin-2-ylmethoxy)-1-phenyl-1H-pyrazol-5-yl)urea]
< 100 nM	Cc1c(OC[C@H]2CN(C(C)C)CCO2)nn(-c2ccccc2)c1NC(=O)N[C@@H]1c2ccccc2C(C)(C)C[C@H]1O [Example 151, 1-((1R,2R)-2-hydroxy-4,4-dimethyl-1,2,3,4-tetrahydronaphthalen-1-yl)-3-(3-(((R)-4-isopropylmorpholin-2-yl)methoxy)-4-methyl-1-phenyl-1H-pyrazol-5-yl)urea]
< 100 nM	COc1nn(-c2ccccc2)c(NC(=O)N[C@@H]2c3ccccc3C(C)(C)[C@@H](OC)[C@H]2O)c1C [Example 153, 1-((r-1,t-2,t-3)-2-hydroxy-3-methoxy-4,4-dimethyl 1,2,3,4-tetrahydronaphthalen-1-yl)-3-(3-methoxy-4-methyl-1-phenyl-1H-pyrazol-5-yl)urea]
< 100 nM	CO[C@H]1[C@@H](O)[C@H](NC(=O)Nc2c(C)c(-c3ccc(=O)n(C)c3)nn2-c2ccccc2)c2ccccc2C1(C)C [Example 154, 1-((r-1,t-2,t-3)-2-hydroxy-3-methoxy-4,4-dimethyl-1,2,3,4-tetrahydronaphthalen-1-yl)-3-(4-methyl-3-(1-methyl-6-oxo-1,6-dihydropyridin-3-yl)-1-phenyl-1H-pyrazol-5-yl)urea]
< 100 nM	CO[C@@H]1[C@@H](O)[C@H](NC(=O)Nc2c(C)c(OCC3CCN(C)CC3)nn2-c2ccccc2)c2ccccc2C1(C)C [Example 158, 1-((r-1,t-2,c-3)-2-hydroxy-3-methoxy-4,4-dimethyl-1,2,3,4-tetrahydronaphthalen-1-yl)-3-(4-methyl-3-((1-methylpiperidin-4-yl)methoxy)-1-phenyl-1H-pyrazol-5-yl)urea]
